# What was measured:
# [1] = tested on: primary cultured astrocytes; experiment: Calcein fluorescence ferrous iron influx (transport-in) assay; type: cell-based, Wistar suckling mice; settings: 1 mM ferrous iron perfusion
# Description: (§1) The primary-cultured astrocytes were plated at a plating density of 5×10^4/well in a 24-well plate with a polylysine-treated cover slip placed in each well. After the astrocytes were cultured for 48 h, the medium was blotted up, and the cells were rinsed gently with the DMEM/F12 basic medium preheated at 37° C. The cells were then treated in groups with 6 wells in each group, and were continually cultured in a 5% CO2 incubator at 37° C. for 24 h. The medium was blotted up. The cells were rinsed once with HBS preheated at 37° C., added with calcein (0.5 μM), placed in an incubator at 37° C. for 0.5 h for loading, then rinsed with HBS for three times, and then detected.
# Calcein-AM was a membrane-permeable non-fluorescent molecule. […] Calcein had high affinity for all of divalent metal ions, and could be combined with various divalent metal ions in the cells and then converted into non-fluorescent substances, which leads to the quenching of the fluorescence. In this experimental system, other divalent metal ions such as Mg^2+ and Ca^2+ were removed, and only a Fe^2+ solution was used for perfusion to ensure that the fluorescence change of intracellular calcein was caused by its binding with Fe^2+. The level of cheatable iron in the cells was estimated by determining the decrease degree of the fluorescence intensity. […]
# FPN1 = experiment: Western blot of FPN1 protein expression in primary cultured astrocytes; type: cell-based, Wistar suckling rats
# Description: (§2) The astrocytes were inoculated into a six-well plate pre-coated with polylysine at a density of 1.5×10^5/ml. In order to detect the activation of HIF-1α and HIF-2α by 6-OHDA and the corresponding protein expression of DMT1 and FPN1, the cells were divided into groups and treated with drugs. After being treated with 10 μM of 6-OHDA for 24 h, the cells were collected to extract the total protein.
# (§3) In order to test the influence of inhibiting the activation of HIF-2α on the protein expression of DMT1 and FPN1 in the astrocytes, the cells were pre-treated with 10 μM of the HIF-2α translation inhibitor for 24 h, and then added with 10 μM of 6-OHDA for co-action for 24 h. Then the total protein was extracted.
# (§4) In order to test the influence of inhibiting the activation of HIF-1α on the protein expression of DMT1 and FPN1 in the astrocytes, the cells were pre-treated with 10 μM of Bay87-2243 for 48 h, and then added with 10 μM of 6-OHDA for co-action for 24 h. Then the total protein was extracted.
# (§5) The activation and inhibition of HIF-1α and HIF-2α by 6-OHDA and the corresponding protein expression of DMT1 and FPN1 were detected by Western blots.
# (§6) After drug treatment of the cells, the medium was completely blotted up, the cells were washed with pre-chilled PBS for three times, and 100 μl of the cell lysis buffer: RIPA lysis buffer (strong) was added to each well, and the cells were lysed on ice for 0.5 h.
# (§7) The concentration of the extracted protein was detected by the BCA protein quantitative kit. The protein was sub-packaged according to 30 μg per serving, brought to the same volume with 0.01M PBS, then added with a 4× loading buffer and mixed well, subjected to a water batch above 95° C. for 5 min to denature the protein, and cryopreserved in the refrigerator at −80° C.
# (§8) The corresponding primary antibodies were diluted with 5% skim milk: HIF-1α was diluted at 1:1000, HIF-2α was diluted at 1:1000, DMT1 was diluted at 1:800, FPN1 was diluted at 1:800, β-actin was diluted at 1:10000, and incubated in the shaker at 4° C. overnight. It was rinsed with the 1×TBST buffer for 3 times, each time for 10 min.
# (§9) The intensity of bands was subjected to density analysis with the Vision Works LS image acquisition and analysis software.
# [2] = tested on: primary cultured astrocytes; experiment: Calcein fluorescence iron efflux (transport-out) assay with DFO perfusion; type: cell-based, Wistar suckling rats; settings: 1 mM DFO perfusion
# Description: as §1
# Calcein-AM was a membrane-permeable non-fluorescent molecule. […] Calcein had high affinity for all of divalent metal ions, and could be combined with various divalent metal ions in the cells and then converted into non-fluorescent substances, which leads to the quenching of the fluorescence. […] The level of cheatable iron in the cells was estimated by determining the decrease degree of the fluorescence intensity. The fluorescence intensity of calcein was inversely proportional to the content of free iron in the cells. When the level of iron in the cells was increased, the free iron combined with calcein, the fluorescence was quenched, and thus the fluorescence intensity was decreased, otherwise it was increased. […]
# HIF-2α [3] = experiment: Western blot of HIF-2α protein expression in primary cultured astrocytes; type: cell-based
# Description: as §2, §3, §5, §6, §7, §8, §9
# DMT1 = experiment: Western blot of DMT1 protein expression in primary cultured astrocytes; type: cell-based, Wistar suckling rats
# Description: as §2, §3, §4, §5, §6, §7, §8, §9
# HIF-1α [4] = experiment: Western blot of HIF-1α protein expression in primary cultured astrocytes; type: cell-based, Wistar suckling rats
# Description: as §2, §4, §5, §6, §7, §8, §9
# HIF-2α [5] = experiment: Western blot of HIF-2α protein expression in primary cultured VM neurons; type: cell-based, Wistar mice; settings: 10 μM 6-OHDA for 24 h, compared to control
# Description: (§10) In order to detect the activation of HIF-1α and HIF-2α in the VM neurons by 6-OHDA, the cells were divided into groups and treated with drugs. After being treated with 10 μM of 6-OHDA for 24 h, the cells were collected to extract the total protein.
# as §6, §7, §8, §9
# HIF-1α [6] = experiment: Western blot of HIF-1α protein expression in primary cultured VM neurons; type: cell-based, Wistar mice; settings: 10 μM 6-OHDA for 24 h, compared to control
# Description: as §10, §6, §7, §8, §9
# [7] = pretreatment with 10 μM HIF-2α inhibitor for 24 h, 10 μM 6-OHDA
# [8] = astrocytes treated with 10 μM HIF-2α inhibitor alone, compared to control group
# [9] = astrocytes, 10 μM HIF-2α inhibitor pretreatment 24 h then 10 μM 6-OHDA 24 h, compared with 6-OHDA group
# [10] = astrocytes treated with 10 μM BAY 87-2243 alone, compared with control group
# [11] = astrocytes, 10 μM BAY 87-2243 pretreatment 48 h then 10 μM 6-OHDA 24 h, compared to 6-OHDA group
# [12] = astrocytes, 10 μM 6-OHDA for 24 h, compared with control group
# [13] = primary cultured astrocytes, 10 μM 6-OHDA for 24 h, compared with control
smiles,measurement,setting,value
COC(=O)c1sccc1N/N=C(\C#N)S(C)(=O)=O [HIF-2α inhibitor],effect on 6-OHDA-increased ferrous iron influx (calcein fluorescence),[1]; [7],fully blocked
same,expression of FPN1,FPN1; [8],decreased
same,expression of FPN1,FPN1; [9],decreased
same,effect on 6-OHDA-caused ferrous iron efflux (calcein fluorescence),[2]; [7],fully blocked
same,expression of HIF-2α,"HIF-2α [3]; astrocytes treated with 10 μM HIF-2α inhibitor alone, compared with control group",decreased
same,expression of HIF-2α,"HIF-2α [3]; astrocytes, 10 μM HIF-2α inhibitor pretreatment 24 h then co-treatment with 10 μM 6-OHDA 24 h, compared with 6-OHDA group",decreased
same,expression of DMT1,DMT1; [8],decreased
same,expression of DMT1,DMT1; [9],decreased
Cc1cc(-c2nc(-c3ccc(OC(F)(F)F)cc3)no2)nn1Cc1ccnc(N2CCN(C3CC3)CC2)c1 [BAY 87-2243],expression of FPN1,FPN1; [10],remained unchanged
same,expression of FPN1,FPN1; [11],did not change
same,expression of HIF-1α,HIF-1α [4]; [10],decreased
same,expression of HIF-1α,"HIF-1α [4]; astrocytes, 10 μM BAY 87-2243 pretreatment 48 h then co-treatment with 10 μM 6-OHDA 24 h, compared with 6-OHDA group",decreased
same,expression of DMT1,DMT1; [10],remained unchanged
same,expression of DMT1,DMT1; [11],did not change
"NCCc1cc(O)c(O)cc1O [6-OHDA, 6-hydroxydopamine]",ferrous iron influx (calcein fluorescence quenching),"[1]; cells treated with 10 μM 6-OHDA, compared with controls",more rapid fluorescence quenching
same,expression of FPN1,FPN1; [12],increased
same,iron efflux (calcein fluorescence intensity),[2]; 10 μM 6-OHDA-treated group,marked increase in fluorescence intensity
same,expression of HIF-1α,HIF-1α [4]; [13],increased
same,protein level of HIF-2α,HIF-2α [5],remained unchanged
same,expression of HIF-2α,HIF-2α [3]; [13],increased
same,expression of DMT1,DMT1; [12],increased
same,protein level of HIF-1α,HIF-1α [6],remained unchanged

# Source: US20210137992A1, “HYPOXIA-INDUCIBLE FACTOR-2A AS A TARGET IN PREVENTION/TREATMENT OF PARKINSON'S DISEASE” (QIngdao University, priority 2019, published 2021)
